From the C3SDB collision cross section collection come the findings set out here.

Each structure is given as a SMILES string.

For data set [1] the following is noted: instrument: TW, calibrated with phosphatidylcholines (ESI+) and phosphatidylethanolamines (ESI-), doubly charged cardiolipins calibrated with poly-DL-….
The conditions of data set [2]: [M+H]+; instrument: TW.

Regarding `CCCCCC/C=C\CCCCCCCC(=O)OC[C@H](COP(=O)(O)OC[C@@H](O)COC(=O)CCCCCCCCCCCCCCC)OC(=O)CCCCCCCC1CC1CCCCCCCC` (stereo partly drawn) [AcylPG(51:2)], the “collision cross section (N2)” value in data set [1] ([M-H]-) is listed as 326.79 Å².

For the molecule `CCCCCC/C=C\CCCCCCCC(=O)OC[C@H](O)COP(=O)(O)OC[C@@H](COC(=O)CCCCCCC/C=C\CCCCCC)OC(=O)CCCCCCCC1CC1CCCCCCCC` (stereo partly drawn) [AcylPG(51:3)], the “collision cross section (N2)” value in data set [1] ([M-H]-) was found to be 325 Å².

In the case of `CCCCCC/C=C\CCCCCCCC(=O)OC[C@H](COP(=O)(O)OC[C@@H](O)COC(=O)CCCCCCCCCCCCCCC)OC(=O)CCCCCCCC1CC1CCCCCCCCCC` (stereo partly drawn) [AcylPG(53:2)], the “collision cross section (N2)” value in data set [1] ([M-H]-) was 333.78 Å².

Turning to `O=C(CCCN1CCN(c2ccccn2)CC1)c1ccc(F)cc1` [Azaperone], the “collision cross section (N2)” value in data set [2] came out at 180.3 Å².

For `CC(NC(=O)C(NC(=O)O)C(C)C)c1nc2ccc(F)cc2s1` (stereo not drawn) [Benthiavalicarb], the “collision cross section (N2)” value in data set [2] amounted to 173.38 Å².

Consider `O=C(Nc1ccccc1-c1ccc(Cl)cc1)c1cccnc1Cl` [Boscalid], for which the “collision cross section (N2)” value in data set [2] stood at 171.67 Å².

With `CC(C)(C)NCC(O)c1cc(Br)c(N)c(Br)c1` (stereo not drawn) [Brombuterol], the “collision cross section (N2)” value in data set [2] is reported as 167 Å².

Turning to `CCCCCC/C=C\CCCCCCCC(=O)OC(COC(=O)CCCCCCCCCCCCCCC)COP(=O)(O)OCC(O)COP(=O)(O)OCC(COC(=O)CCCCCCCCCCCCCCC)OC(=O)CCCCCCC/C=C\CCCCCC` (stereo not drawn) [CL(64:2)], the results for the “collision cross section (N2)” value in data set [1] ([M+2K]2+) and in data set [1] ([M-2H]2-) were 422.9 Å² and 397 Å², respectively.

As for `CCCCCC/C=C\CCCCCCCC(=O)OC(COC(=O)CCCCCCCCCCCCCCC)COP(=O)(O)OCC(O)COP(=O)(O)OCC(COC(=O)CCCCCCCCCCCCCCC)OC(=O)CCCCCCCC1CC1CCCCCC` (stereo not drawn) [CL(65:2)], the “collision cross section (N2)” value worked out at 425.4 Å² in data set [1] ([M+2K]2+) and 399.77 Å² in data set [1] ([M-2H]2-).

Regarding `CCCCCC/C=C\CCCCCCCC(=O)OCC(COP(=O)(O)OCC(O)COP(=O)(O)OCC(COC(=O)CCCCCCC/C=C/CCCCCCCC)OC(=O)CCCCCCC/C=C\CCCCCC)OC(=O)CCCCCCC/C=C\CCCCCCCC` (stereo not drawn) [CL(68:4)], the “collision cross section (N2)” value in data set [1] ([M-2H]2-) amounted to 406.81 Å².

As for `CCCCCCCC/C=C\CCCCCCCC(=O)OC(COC(=O)CCCCCCCCCCCCCCC)COP(=O)(O)OCC(O)COP(=O)(O)OCC(COC(=O)CCCCCCCC1CC1CCCCCCCC)OC(=O)CCCCCCCCCCCCCCC` (stereo not drawn) [CL(69:2)], in data set [1] ([M-2H]2-), the “collision cross section (N2)” value turned out to be 408.93 Å².

Regarding `CCCCCC/C=C\CCCCCCCC(=O)OCC(COP(=O)(O)OCC(O)COP(=O)(O)OCC(COC(=O)CCCCCCCC1CC1CCCCCCCC)OC(=O)CCCCCCC/C=C\CCCCCC)OC(=O)CCCCCCC/C=C\CCCCCCCC` (stereo not drawn) [CL(69:4)], in data set [1] ([M-2H]2-), the “collision cross section (N2)” value came out at 409.28 Å².

`Nc1c(Cl)cc(C(O)CNC2CCC(O)CC2)cc1Cl` (stereo not drawn) [Clencyclohexerol]: the “collision cross section (N2)” value in data set [2] is 164.7 Å².

Consider `C[C@H]1C[C@H]2[C@@H]3CCC4=CC(=O)C=C[C@]4(C)[C@@]3(F)[C@@H](O)C[C@]2(C)[C@@]1(O)C(=O)CCl` [Clobetasol], for which the “collision cross section (N2)” value in data set [2] stood at 201.29 Å².

On to `C[C@]12CC[C@H]3[C@@H](CCC4=C(Cl)C(=O)CC[C@@]43C)[C@@H]1CC[C@@H]2O` [Clostebol], for which the “collision cross section (N2)” value in data set [2] came out at 173.6 Å².

For the molecule `COP(=O)(OC)OC=C(Cl)Cl` [Dichlorvos], the “collision cross section (N2)” value in data set [2] amounted to 133.07 Å².

As for `O=C(O)Cc1ccccc1Nc1c(Cl)cccc1Cl` [Diclofenac], the “collision cross section (N2)” value in data set [2] stood at 157.2 Å².

Turning to `Fc1ccc(cc1)N\3c2cc(c(F)cc2C(=O)C(/C(=O)O)=C/3)N4CCN(C)CC4` [Difloxacine], the “collision cross section (N2)” value in data set [2] was 192.3 Å².

Take `O=C(NC(=O)c1c(F)cccc1F)Nc1ccc(Cl)cc1` [Diflubenzuron]: in data set [2], the “collision cross section (N2)” value is recorded as 160.98 Å².

Consider `C[C@H]1c2cccc(O)c2C(=O)C2=C(O)[C@]3(O)C(=O)C(C(N)=O)=C(O)[C@@H](N(C)C)[C@@H]3[C@@H](O)[C@@H]21` [Doxycycline], for which, in data set [2], the “collision cross section (N2)” value was found to be 197.4 Å².

`O=C(O)\C3=C\N(c2cc(N1CCN(CC)CC1)c(F)cc2C3=O)C4CC4` [Enrofloxacine]: the “collision cross section (N2)” value in data set [2] was determined as 194.8 Å².

With `CCOP(=O)(NC(C)C)Oc1ccc(S(C)(=O)=O)c(C)c1` (stereo not drawn) [Fenamiphos sulfone], the “collision cross section (N2)” value in data set [2] was found to be 179.48 Å².

As for `CC(Cc1ccc(O)cc1)NCC(O)c1cc(O)cc(O)c1` (stereo not drawn) [Fenoterol], the “collision cross section (N2)” value in data set [2] is 180.4 Å².

For `CCOC(=O)NCCOc1ccc(Oc2ccccc2)cc1` [Fenoxycarb], the “collision cross section (N2)” value in data set [2] is 178.44 Å².

`CC(Oc1ccc(Oc2ccc(C(F)(F)F)cn2)cc1)C(=O)O` (stereo not drawn) [Fluazifop]: in data set [2], the “collision cross section (N2)” value was 173.47 Å².

Consider `Cc1c(Nc2ncccc2C(=O)O)cccc1C(F)(F)F` [Flunixin], for which the “collision cross section (N2)” value in data set [2] was 159.1 Å².

As for `CC(C)Oc1cccc(NC(=O)c2ccccc2C(F)(F)F)c1` [Flutolanil], the “collision cross section (N2)” value in data set [2] is 175.45 Å².

`COC(=O)C(C)N(C(=O)c1ccco1)c1c(C)cccc1C` (stereo not drawn) [Furalaxyl]: in data set [2], the “collision cross section (N2)” value is 167.15 Å².

Turning to `CCCN1C[C@H](C)[C@@H](O)[C@](C)(O)[C@@H](CC)OC(=O)[C@H](C)[C@@H](O[C@H]2C[C@@](C)(OC)[C@@H](O)[C@H](C)O2)[C@H](C)[C@@H](O[C@@H]2O[C@H](C)C[C@H](N(C)C)[C@H]2O)[C@](C)(O)C[C@H]1C` [Gamithromycin], in data set [2], the “collision cross section (N2)” value was found to be 280.6 Å².

Take `CCCCCCC1CC1CCCCCCCC(=O)O[C@H](CO)COP(=O)([O-])OCC[NH3+]` (stereo partly drawn) [LPE(0:0/17:1)]: the results for the “collision cross section (N2)” value in data set [1] ([M+H]+), in data set [1] ([M+Na]+) and in data set [1] ([M-H]-) were 214.85 Å², 219.32 Å² and 207.62 Å², respectively.

As to `CCCCCCCCC1CC1CCCCCCCC(=O)O[C@H](CO)COP(=O)([O-])OCC[NH3+]` (stereo partly drawn) [LPE(0:0/19:1)], the “collision cross section (N2)” value came to 221.32 Å² in data set [1] ([M+H]+), 226.07 Å² in data set [1] ([M+Na]+) and 214.39 Å² in data set [1] ([M-H]-).

`CCCCCC/C=C/CCCCCCCC(=O)OC[C@@H](O)COP(=O)([O-])OCC[NH3+]` [LPE(16:1/0:0)]: the “collision cross section (N2)” value amounted to 206.28 Å² in data set [1] ([M+H]+), 211.09 Å² in data set [1] ([M+Na]+) and 203.75 Å² in data set [1] ([M-H]-).

`CCCCCCCCCCCCCCC(=O)O[C@H](CO)COP(=O)(O)OCC(O)CO` (stereo partly drawn) [LPG(15:0)]: the “collision cross section (N2)” value in data set [1] ([M-H]-) is 208.96 Å².

With `CCCCC1CC1CCCCCCCC(=O)O[C@H](CO)COP(=O)(O)OCC(O)CO` (stereo partly drawn) [LPG(15:1)], the “collision cross section (N2)” value in data set [1] ([M-H]-) worked out at 206.44 Å².

In the case of `CCCCCCC1CC1CCCCCCCC(=O)OC[C@@H](O)COP(=O)(O)OCC(O)CO` (stereo partly drawn) [LPG(17:1)], the “collision cross section (N2)” value in data set [1] ([M-H]-) is listed as 214.26 Å².

As for `CCCCCCCC/C=C/CCCCCCCC(=O)OC[C@@H](O)COP(=O)(O)OCC(O)CO` (stereo partly drawn) [LPG(18:1)], the “collision cross section (N2)” value in data set [1] ([M-H]-) was determined as 217.72 Å².

With `CCCCCCCCC1CC1CCCCCCCC(=O)OC[C@@H](O)COP(=O)(O)OCC(O)CO` (stereo partly drawn) [LPG(19:1)], the “collision cross section (N2)” value in data set [1] ([M-H]-) amounted to 221.18 Å².

For `CCCCCCCC/C=C\CCCCCCCC(=O)OC(COC(=O)CCCCCCCCCCCCCCCCC)COP(=O)(O)O` (stereo not drawn) [PA(36:1)], the “collision cross section (N2)” value in data set [1] ([M-H]-) is 261.81 Å².

On to `CCCCCCCCCCCCCCCC(=O)OCC(COP(=O)(O)OCCN)OC(=O)CCCCCCCCCCCCC` (stereo not drawn) [PE(30:0)], for which the “collision cross section (N2)” value in data set [1] ([M+H]+) turned out to be 265.85 Å²; in data set [1] ([M-H]-), 251.05 Å².

`CCCCCC/C=C\CCCCCCCC(=O)OCC(COP(=O)(O)OCCN)OC(=O)CCCCCCCCCCCCC` (stereo not drawn) [PE(30:1)]: the “collision cross section (N2)” value in data set [1] ([M+H]+) was determined as 260.6 Å²; in data set [1] ([M-H]-) it was 248.78 Å².

As to `CCCCCCCCCCCCCCCC(=O)OCC(COP(=O)(O)OCCN)OC(=O)CCCCCCCCCCCCCC` (stereo not drawn) [PE(31:0)], the “collision cross section (N2)” value in data set [1] ([M+H]+) is on record as 269.25 Å²; in data set [1] ([M-H]-), 253.95 Å².

`CCCCCCCCCCCCCCCC(=O)OCC(COP(=O)(O)OCCN)OC(=O)CCCCCCCC1CC1CCCCCC` (stereo not drawn) [PE(33:1)]: the “collision cross section (N2)” value in data set [1] ([M+H]+) is given as 273.6 Å²; in data set [1] ([M-H]-), 259.91 Å².

Take `CCCCCC/C=C\CCCCCCCC(=O)OCC(COP(=O)(O)OCCN)OC(=O)CCCCCCC/C=C\CCCCCCCC` (stereo not drawn) [PE(34:2)]: the “collision cross section (N2)” value is listed as 271.97 Å² in data set [1] ([M+H]+) and 261.72 Å² in data set [1] ([M-H]-).

As to `CCCCCCCC/C=C\CCCCCCCC(=O)OCC(COP(=O)(O)OCCN)OC(=O)CCCCCCC/C=C\CCCCCCCC` (stereo not drawn) [PE(36:2)], the “collision cross section (N2)” value is listed as 276.82 Å² in data set [1] ([M+H]+) and 269.17 Å² in data set [1] ([M-H]-).

On to `CCCCCCCCCCCCCCCC(=O)OCC(COP(=O)(O)OCC(O)CO)OC(=O)CCCCCCCCCCCCC` (stereo not drawn) [PG(30:0)], for which the “collision cross section (N2)” value is 272.75 Å² in data set [1] ([M+Na]+) and 258.02 Å² in data set [1] ([M-H]-).

With `CCCCCCCCCCCCCCCC(=O)OCC(COP(=O)(O)OCC(O)CO)OC(=O)CCCCCCCCCCCCCCC` (stereo not drawn) [PG(32:0)], the figures for the “collision cross section (N2)” value in data set [1] ([M+Na]+) and in data set [1] ([M-H]-) were 278.8 Å² and 263.91 Å², respectively.

Consider `CCCCCC/C=C\CCCCCCCC(=O)OCC(COP(=O)(O)OCC(O)CO)OC(=O)CCCCCCCCCCCCCCC` (stereo not drawn) [PG(32:1)], for which the entries for the “collision cross section (N2)” value in data set [1] ([M+Na]+) and in data set [1] ([M-H]-) were 275.15 Å² and 262.68 Å², respectively.

For the molecule `CCCCCC/C=C\CCCCCCCC(=O)OCC(COP(=O)(O)OCC(O)CO)OC(=O)CCCCCCC/C=C\CCCCCCCC` (stereo not drawn) [PG(34:2)], the “collision cross section (N2)” value in data set [1] ([M+Na]+) amounted to 278.38 Å²; in data set [1] ([M-H]-) it was 267.97 Å².

`CCCCCC/C=C\CCCCCCCC(=O)OCC(COP(=O)(O)OCC(O)CO)OC(=O)CCCCCCCC1CC1CCCCCCCC` (stereo not drawn) [PG(35:2)]: the figures for the “collision cross section (N2)” value in data set [1] ([M+Na]+) and in data set [1] ([M-H]-) were 281.82 Å² and 271.85 Å², respectively.
